Reference: patent US9994578B2, “Benzodiazepine derivative and use thereof” (JIANGSU NHWALUOKANG PHARMCEUTICAL RESEARCH AND DEVELOPMENT …, priority 2014, dated 2018)
Values after ≈ are worked out from the molar mass of the structure shown. Marks after values point to notes of the source that are not given here.

Experiments:
Kunming mice = assay: Anesthetic efficacy on mice (disappearance of righting reflex); format: in vivo; details: for Number of anesthetized animals / Behavior of animals: 9 mg/kg caudal vein injection, 0.9 mg/ml; for Number of anesthetized animals: 6 per group, disappearance of righting reflex
Experimental: Kunming mice (SPF, Chongqing Medical University Animal Center) were randomly grouped with 6 animals in each group. The dosage as 9 mg/kg was administered via caudal vein injection for 3-5 seconds. The performances during animal experiments were recorded with the standard of disappearance of righting reflex.

[1] = Solubility in normal saline; format: physicochemical; details: saline or isotonic
Experimental: The structures of the compounds C1-C5 and their solubilities in normal saline are as follows:
Furthermore, other derivatives were also prepared. The structures and solubilities in normal saline are as follows: […]

rats = assay: Anesthetic induction time and waking up time of rats via intravenous bolus; format: in vivo; details: 2*ED50 i.v. bolus, recovery time
Experimental: (§1) Kunming rats (SPF, Qinglongshan animal breeding center of Nanjing), half male and half female, were divided into groups with 10 animals in each group. The dosage of administration was 2*ED50 (ED50 value was detected in Example 12) and caudal vein injection was done at a constant speed in 10 seconds. The time for the disappearance of right reflex (latent period) and recovery time (duration period) of rats were recorded.

Kunming rats = assay: as above; format: in vivo; details: for Number of anesthetic animals: 2*ED50 caudal vein injection in 10 seconds, 10 per group; for Induction time: 2*ED50 i.v. bolus, time to disappearance of righting reflex
Experimental: as §1

[2] = Rat plasma decomposition in vitro; format: in vitro ADME; details: 37° C.
Experimental: Remimazolam and compound C2 were formulated in normal saline of respectively. 0.1 ml of the solution was measured and added into plasma of rat (living Kunming species, SPF, Animal center of Chongqing Medical University). Mixing was performed sufficiently, and the mixture was placed in constant temperature water bath of 37° C. 2 ml of acetonitrile was added immediately after taking samples at different time-points. Shaking and centrifugation at 1000 rpm/min were conducted to obtain supernatant and HPLC measurement was performed.

Macaca fascicularis = assay: Anesthetic pharmacodynamic experiment on Macaca fascicularis; format: in vivo; details: for Number of anesthetic animal/number of animal: disappearance of eyelid response
Experimental: Compound C2 showing significant efficacy on other animal, was administrated to Macaca fascicularis for anesthetic pharmacodynamic experiment. The rough anesthetic dosage of compound C2 for Macaca fascicularis was investigated by preliminary test before experiment and different dosages were set for the formal experiment. Intravenous administration was performed in 60±10s. The disappearance of eyelid response of animal was used to judge whether anesthesia occurred on the animal. The behaviors of animals were observed during duration period and the anesthetic effects of compound C2 on Macaca fascicularis were evaluated.

[3] = tested on: New Zealand white rabbits; assay: Rabbits anesthetic ED50 (sequential method); format: in vivo; details: Oryctolagus cuniculus, ear vein injection in 30 seconds, disappearance of righting reflex
Experimental: Anesthetic ED50 values of rabbits are determined by sequential method. Healthy New Zealand white rabbits (SPF, Peizhou rabbit breeding center) were administrated via ear vein injection at a constant speed in 30 seconds. The rough dosage that cause anesthesia (or death) of animal were found by preliminary test before experiment and used as middle dosage for the formal experiment. The spacing of each group was set as 0.8 and 2-3 dose-groups were set up and down, respectively. The disappearance of righting reflex or death was used as judgment index of efficacy or toxicity, respectively. During the formal experiment, administration began from the group of middle dosage. When the animal was anesthetized (or dead), administration was reduced by a dose unit; if the animal was not anesthetized (or dead), administration was increased by a dose unit, until 3-4 reversal occurred. The disappearance of righting reflex or death was used as judgment index, respectively. The ot425 software was used to calculate ED50.

[4] = tested on: GABAA receptor benzodiazepines site; assay: In vitro affinity with GABAA receptor benzodiazepines site (3H-flunitrazepam displacement, brain membrane); format: binding, SD rat
ICU patients = details: of 49 ICU patients, sedation; cited from earlier work
[5] = Hepatocyte metabolism experiment of CNS 7056 in vitro with formic acid; format: in vitro ADME; details: formic acid added in liver cell nutrient solution at 0.1% (v/v)
Excerpt: Therefore, after a long-term administration of remimazolam during ICU sedation process by ONO PHARMACEUTICAL CO., LTD, the metabolite methanol is easily oxidized to formic acid. Formic acid easily accumulates in vivo and inhibits hCES1 such that remimazolam is metabolized slowly, which may cause high serum concentration in some patients.

[6] = tested on: New Zealand white rabbits; assay: Anesthetic induction time and waking up time of rabbits via intravenous bolus; format: in vivo; details: for Number of anesthetic animals: 1.0 mg/kg (2*ED50) ear vein injection in 30 seconds, 8 per group; for Duration / Induction time: 1.0 mg/kg (2*ED50) i.v. bolus
Experimental: New Zealand white rabbits (SPF, Peizhou rabbit breeding center), half male and half female, were divided into groups with 8 animals in each group. The dosage of administration was 2*ED50 (ED50 value was detected in Example 14), and was administrated via ear vein injection at a constant speed in 30 seconds. The time (latent period) for the disappearance of right reflex and recovery time (duration period) of rabbits were recorded.

[7] = tested on: New Zealand white rabbits; assay: Long-term venous infusion experiment on rabbits; format: in vivo; details: inducing dose 1.5 mg/kg (3*ED50), maintaining dose 22.5 mg/kg/h
Experimental: New Zealand white rabbits (SPF, Peizhou rabbit breeding center), half male and half female, were divided into groups with 10 animals in each group. The dosage of each administration was 3*ED50 (ED50 value was detected in Example 14) as inducing dosage when intravenous injection was performed on rabbits. An appropriate dosage was infused as maintaining dosage for 30 min. […] The effects of long-term infusion of medicine of the two groups on rabbits (breathe, salivation, excrement) were observed and the time from ceasing administration to the recovery of righting reflex of rabbits were recorded.

SD rats = assay: Anesthetic ED50, LD50 and TI index of rats (sequential method); format: in vivo; details: for ED50: Rattus norvegicus, male SD rats, caudal vein injection in 10 seconds, disappearance of righting reflex; for TI index: rats, LD50/ED50
Experimental: (§2) Anesthetic ED50 (median effective dose) value and LD50 (half lethal dose) value of rats are determined by sequential method. Healthy male SD rats (SPF, Qinglongshan animal breeding center of Nanjing), n-10˜20, were administrated via caudal vein injection and injection was completed in 10 seconds at a constant speed. The rough dosage that cause anesthesia (or death) of animal was found by preliminary test before experiment and used as middle dosage for the formal experiment. The spacing of each group was set as 0.8, and 2-3 dose-groups were set up and down, respectively. During the formal experiment, administration began from the group of middle dosage. When the animal was anaesthetized (or dead), administration was reduced by a dose unit; if the animal was not anaesthetized (or death), administration was increased by a dose unit until 3-4 reversal were found. The disappearance of righting reflex or death was used as judgment index, respectively. The ot425 software was used to calculate LD50 and ED50. Treatment index (TI index) was calculated by LD50 and ED50 value=LD50/ED50.

[8] = as above; format: in vivo; details: rat, in vivo, intravenous; male SD rats, caudal vein injection in 10 seconds, death
Experimental: as §2

[9] = Oil/water partition coefficient (n-octanol/water); format: physicochemical; details: 1 mg/ml aqueous solution, room temperature
Experimental: Remirnazolam and compound C2 were formulated into aqueous solution of 1 mg/ml respectively, 10 ml of prepared solution were measured and n-octanol with equal volume was added.

CCCOC(=O)CC[C@@H]1N=C(c2ccccn2)c2cc(Br)ccc2-n2c(C)cnc21.Cc1ccc(S(=O)(=O)O)cc1 [C7, remimazolam acid n-propyl ester p-toluenesulfonate]
Number of anesthetized animals (Kunming mice): 0/6
solubility [1]: 8 mg/mL

CCOC(=O)CC[C@@H]1N=C(c2ccccn2)c2cc(Br)ccc2-n2c(C)cnc21.O=S(=O)(O)c1ccccc1 [C3, remimazolam acid ethyl ester benzenesulfonate]
solubility [1]: 15 mg/mL

CCOC(=O)CC[C@@H]1N=C(c2ccccn2)c2cc(Br)ccc2-n2c(C)cnc21.CS(=O)(=O)O [C4, remimazolam acid ethyl ester methanesulfonate]
solubility [1]: 16 mg/mL

Cc1ccc(S(=O)(=O)O)cc1.Cc1cnc2n1-c1ccc(Br)cc1C(c1ccccn1)=N[C@H]2CCC(=O)OC1CCCCC1 [C9, remimazolam acid cyclohexyl ester p-toluenesulfonate]
Behavior of animals (Kunming mice): Non-effect
Number of anesthetized animals (Kunming mice): 0/6
solubility [1]: 5 mg/mL

Cc1ccc(S(=O)(=O)O)cc1.Cc1cnc2n1-c1ccc(Br)cc1C(c1ccccn1)=N[C@H]2CCC(=O)OC(C)C [C6, remimazolam acid isopropyl ester p-toluenesulfonate]
Number of anesthetized animals (Kunming mice): 6/6
anesthetic effect on the mice (Kunming mice; 9 mg/kg i.v.): has anesthetic effect on the mice
toxicity in mice (Kunming mice; 9 mg/kg i.v.): shows some toxicity
solubility [1]: 8 mg/mL

COC(=O)CC[C@@H]1N=C(c2ccccn2)c2cc(Br)ccc2-n2c(C)cnc21 [remimazolam, reference compound]
Duration (rats): 242.2 ± 68 s
Number of anesthetic animals (Kunming rats): 10/10
Induction time (Kunming rats): 52.1 ± 4.7 s
Rat Plasma decomposition in vitro (%) ([2]; 10 s): 53.7%
Rat Plasma decomposition in vitro (%) ([2]; 30 s): 96.7%
Rat Plasma decomposition in vitro (%) ([2]; 1 min): 100%
Duration (Macaca fascicularis; 3 mg/kg i.v.): 23.33 ± 6.71 min
Induction time (Macaca fascicularis; 3 mg/kg i.v.): 2.17 ± 0.41 s
Number of anesthetic animal/number of animal (Macaca fascicularis; 3 mg/kg i.v.): 3/3
Number of anesthetized animals (Kunming mice): 6/6
ED50 [3]: 0.512 mg/kg
Inhibitory rate % ([4]; 1.0 × 10^−5M test compound, 1 nM 3H-flunitrazepam): 99.7* %
Inhibitory rate % ([4]; 1.0 × 10^−6M): 85.5%
Inhibitory rate % ([4]; 1.0 × 10^−7M): 47.0%
Inhibitory rate % ([4]; 1.0 × 10^−8M): 15.4%
Inhibitory rate % ([4]; 1.0 × 10^−9M): 6.8%
Inhibitory rate % ([4]; 1.0 × 10^−10M): 23.0%
IC50 ([4]; calculated by logit method): 0.0158 µM
patients with higher serum concentration of remimazolam (ICU patients): Five
patients with prolonged waking up time (ICU patients): five
metabolism of CNS 7056 in hepatocytes [5]: totally inhibited
Number of anesthetic animals [6]: 8/8
Duration [6]: 10.25 ± 2.72 min
Induction time [6]: 4.30 ± 2.38 min
Waking up time after intravenous drip for 30 min [7]: 33.91 ± 10.28 min
ED50 (SD rats): 5 mg/kg
TI index (SD rats): 12.3
LD50 [8]: 61.4 mg/kg
logP at 24 h [9]: 2.62

CCOC(=O)CC[C@@H]1N=C(c2ccccn2)c2cc(Br)ccc2-n2c(C)cnc21.CCS(=O)(=O)O [C5, remimazolam acid ethyl ester ethanesulfonate]
solubility [1]: 16 mg/mL

CCOC(=O)CC[C@@H]1N=C(c2ccccn2)c2cc(Br)ccc2-n2c(C)cnc21 [C2, remimazolam acid ethyl ester p-toluenesulfonate]
Duration (rats): 267.4 ± 105 s
Number of anesthetic animals (Kunming rats): 10/10
Induction time (Kunming rats): 18.8 ± 3.0 s
Rat Plasma decomposition in vitro (%) ([2]; 10 s): 61.4%
Rat Plasma decomposition in vitro (%) ([2]; 30 s): 99.0%
Rat Plasma decomposition in vitro (%) ([2]; 1 min): 100%
Duration (Macaca fascicularis; 3 mg/kg i.v.): 28.67 ± 5.92 min
Induction time (Macaca fascicularis; 3 mg/kg i.v.): 2.00 ± 0.63 s
Number of anesthetic animal/number of animal (Macaca fascicularis; 3 mg/kg i.v.): 3/3
Duration (Macaca fascicularis; 4 mg/kg i.v.): 31.67 ± 6.86 min
Induction time (Macaca fascicularis; 4 mg/kg i.v.): 1.74 ± 0.43 s
Number of anesthetic animal/number of animal (Macaca fascicularis; 4 mg/kg i.v.): 3/3
Duration (Macaca fascicularis; 5 mg/kg i.v.): 36.21 ± 4.78 min
Induction time (Macaca fascicularis; 5 mg/kg i.v.): 1.48 ± 0.54 s
Number of anesthetic animal/number of animal (Macaca fascicularis; 5 mg/kg i.v.): 3/3
Number of anesthetized animals (Kunming mice): 6/6
ED50 [3]: 0.512 mg/kg
Number of anesthetic animals [6]: 8/8
Duration [6]: 13.19 ± 3.52 min
Induction time [6]: 1.80 ± 0.78 min
Waking up time after intravenous drip for 30 min [7]: 45.20 ± 12.59 min
ED50 (SD rats): 3.2 mg/kg
TI index (SD rats): 9.6
LD50 [8]: 30.7 mg/kg
logP at 24 h [9]: 3.28
solubility [1]: 15 mg/mL (≈ 33.1 mM)

Cc1ccc(S(=O)(=O)O)cc1.Cc1cnc2n1-c1ccc(Br)cc1C(c1ccccn1)=N[C@H]2CCC(=O)OCCC(C)C [C8, remimazolam acid isopentyl ester p-toluenesulfonate]
Behavior of animals (Kunming mice): Non-effect
Number of anesthetized animals (Kunming mice): 0/6
solubility [1]: 6 mg/mL
